Test results taken from US20230150929A1, “SELECTIVE NON-CYCLIC NUCLEOTIDE ACTIVATORS FOR THE CAMP SENSOR EPAC1” (The Board of Regents of The University of Texas System, priority 2020, published 2023).
Values belong to the compound of their own block, whether it stands above or below them.

Target: T1, EPAC1-CNBD (Homo sapiens, UniProt O95398)
T1 sequence (O95398 169-318 isoform O95398-3): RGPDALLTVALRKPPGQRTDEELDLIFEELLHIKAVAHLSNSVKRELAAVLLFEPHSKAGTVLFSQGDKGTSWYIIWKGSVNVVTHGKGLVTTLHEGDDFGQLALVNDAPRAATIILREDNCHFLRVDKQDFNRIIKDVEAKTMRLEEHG
Experiment: 8-NBD-cAMP competition binding assay, EPAC1-CNBD
Conditions: for RFI (%) (relative fluorescence intensity), Table 2 / RFI (%) (relative fluorescence intensity), Table 1 / RFI (%) (relative fluorescence intensity), Table 4 / RFI (%) (relative fluorescence intensity), Table 3: compound 10 µM, EPAC1-CNBD 0.8 µM, 8-NBD-cAMP 62.5 nM, mean ± SEM, lower RFI = stronger binding; for EPAC1 binding potency / affinity in words: SAR comment on RFI, mostly relative to 3 or 9a

Compound: Cc1ccc(S(=O)(=O)NC(=O)COc2cccc3ccccc23)c(C)c1 [Compound 9q, N-((2,4-dimethylphenyl)sulfonyl)-2-(naphthalen-1-yloxy)acetamide]
- RFI (%) (relative fluorescence intensity), Table 2: 71 ± 1%

Compound: Cc1cc(C)c(S(=O)(=O)NC(=O)CNc2cccc(Cl)c2)c(C)c1 [Compound 9h, 2-((3-Chlorophenyl)amino)-N-(mesitylsulfonyl)acetamide]
- RFI (%) (relative fluorescence intensity), Table 1: 88 ± 9%

Compound: Cc1cc(C)c(S(=O)(=O)NC(=O)COc2ccc3c(c2)CCCC3)c(C)c1 [Compound 9f, N-(Mesitylsulfonyl)-2-((5,6,7,8-tetrahydronaphthalen-2-yl)oxy)acetamide]
- EPAC1 binding potency / affinity in words: slightly decreased binding potency
- RFI (%) (relative fluorescence intensity), Table 1: 77 ± 2%

Compound: COc1ccc2ccc(OCC(=O)NS(=O)(=O)c3c(C)cc(C)cc3C)cc2c1 [Compound 9e, N-(Mesitylsulfonyl)-2-((7-methoxynaphthalen-2-yl)oxy)acetamide]
- RFI (%) (relative fluorescence intensity), Table 1: 49 ± 3%
- fold improvement in binding potency compared to 9a (from RFI at 10 µM): about 1.7 fold

Compound: Cc1ccc(S(=O)(=O)NC(=O)C(C)(C)Oc2ccc3ccccc3c2)c(C)c1 [Compound 12f, N ((2,4-Dimethylphenyl)sulfonyl)-2-methyl-2-(naphthalen-2-yloxy)propenamide]
- EPAC1 binding potency / affinity in words: partial or complete loss of binding activity
- RFI (%) (relative fluorescence intensity), Table 3: 76 ± 3%

Compound: Cc1cc(C)c(S(=O)(=O)NC(=O)CN2CCn3c(nnc3C(F)(F)F)C2)c(C)c1 [Compound 9l, N-(Mesitylsulfonyl)-2-(3-(trifluoromethyl)-5,6-dihydro-[1,2,4]triazolo[4,3-a]pyrazin-7(8H)-yl)acetamide]
- RFI (%) (relative fluorescence intensity), Table 1: 104 ± 2%

Compound: Cc1ccc(S(=O)(=O)NC(=O)COc2ccc3cc(F)ccc3c2)c(C)c1 [Compound 9o, 2-((6-Fluoronaphthalen-2-yl)oxy)-N-((2,4-dimethylphenyl)sulfonyl)acetamide]
- RFI (%) (relative fluorescence intensity), Table 2: 55 ± 1%

Compound: Cc1cc(C)c(S(=O)(=O)NC(=O)COc2ccc3cccnc3c2)c(C)c1 [Compound 9c, N-(Mesitylsulfonyl)-2-(quinolin-7-yloxy)acetamide]
- EPAC1 binding potency / affinity in words: no significant improvement
- RFI (%) (relative fluorescence intensity), Table 1: 92 ± 2%

Compound: CC(=O)c1c(OCC(=O)NS(=O)(=O)c2c(C)cc(C)cc2C)ccc2ccccc12 [Compound 9d, 2-((1-Acetylnaphthalen-2-yl)oxy)-N-(mesitylsulfonyl)acetamide]
- EPAC1 binding potency / affinity in words: no significant improvement
- RFI (%) (relative fluorescence intensity), Table 1: 104 ± 7%

Compound: Cc1cc(C)c(S(=O)(=O)NC(=O)CNc2ccc3ccccc3c2)c(C)c1 [Compound 12b, N-(Mesitylsulfonyl)-2-(naphthalen-2-ylamino)acetamide]
- RFI (%) (relative fluorescence intensity), Table 3: 97 ± 5%

Compound: Cc1ccc(S(=O)(=O)NC(=O)COc2ccc3[nH]ncc3c2)c(C)c1 [Compound 9s, 2-((1H-Indazol-5-yl)oxy)-N-((2,4-dimethylphenyl)sulfonyl)acetamide]
- RFI (%) (relative fluorescence intensity), Table 2: 94 ± 4%

Compound: Cc1ccc(S(=O)(=O)NCCOc2ccc3ccccc3c2)c(C)c1 [Compound 12g, 2,4-Dimethyl-N-(2-(naphthalen-2-yloxy)ethyl)benzenesulfonamide]
- EPAC1 binding potency / affinity in words: partial or complete loss of binding activity
- RFI (%) (relative fluorescence intensity), Table 3: 81 ± 3%

Compound: Cc1cc(C)c(S(=O)(=O)NC(=O)CSc2nc3ccccc3c(=O)[nH]2)c(C)c1 [Compound 9i, N-(Mesitylsulfonyl)-2-((4-oxo-3,4-dihydroquinazolin-2-yl)thio)acetamide]
- RFI (%) (relative fluorescence intensity), Table 1: 95 ± 4%

Compound: Cc1cc(C)c(S(=O)(=O)NC(=O)CSc2ccc3ccccc3c2)c(C)c1 [Compound 12a, N-(Mesitylsulfonyl)-2-(naphthalen-2-ylthio)acetamide]
- EPAC1 binding potency / affinity in words: completely inhibit EPAC binding potency
- RFI (%) (relative fluorescence intensity), Table 3: 92 ± 2%

Compound: Cc1ccc(S(=O)(=O)NC(=O)COc2ccc3[nH]ccc3c2)c(C)c1 [Compound 9r, 2-((1H-Indol-5-yl)oxy)-N-((2,4-dimethylphenyl)sulfonyl)acetamide]
- RFI (%) (relative fluorescence intensity), Table 2: 91 ± 2%

Compound: Cc1cc(C)c(S(=O)(=O)N2CCC(Oc3ccc4ccccc4c3)CC2)c(C)c1 [Compound 12d, 1-(Mesitylsulfonyl)-4-(naphthalen-2-yloxy)piperidine]
- EPAC1 binding potency / affinity in words: partial or complete loss of binding activity
- RFI (%) (relative fluorescence intensity), Table 3: 105 ± 3%

Compound: Cc1ccc(S(=O)(=O)NC(=O)COc2ccc3cc(Cl)ccc3c2)c(C)c1 [Compound 9n, 2-((6-Chloronaphthalen-2-yl)oxy)-N-((2,4-dimethylphenyl)sulfonyl)acetamide]
- RFI (%) (relative fluorescence intensity), Table 2: 50 ± 2%

Compound: Cc1cc(C)c(S(=O)(=O)NC(=O)CN2CCc3ccccc3C2)c(C)c1 [Compound 9j, 2-(3,4-Dihydroisoquinolin-2(1H)-yl)-N-(mesitylsulfonyl)acetamide]
- RFI (%) (relative fluorescence intensity), Table 1: 102 ± 1%

Compound: Cc1cc(C)c(S(=O)(=O)NC(=O)CN2CCN(c3ccccn3)CC2)c(C)c1 [Compound 9m, N-(Mesitylsulfonyl)-2-(4-(pyridin-2-yl)piperazin-1-yl)acetamide]
- RFI (%) (relative fluorescence intensity), Table 1: 119 ± 8%

Compound: Cc1ccc(S(=O)(=O)NC(=O)COc2ccc3ccc(Cl)cc3c2)c(C)c1 [Compound 9p, 2-((7-Chloronaphthalen-2-yl)oxy)-N-((2,4-dimethylphenyl)sulfonyl)acetamide]
- RFI (%) (relative fluorescence intensity), Table 2: 66 ± 2%

The next lines start with the values.

- EPAC1 binding potency / affinity in words: decreased the binding potency
- RFI (%) (relative fluorescence intensity), Table 4: 69 ± 2%
Compound: O=C(COc1ccc2ccccc2c1)NS(=O)(=O)c1ccccc1F [Compound 25b, N-((2-Fluorophenyl)sulfonyl)-2-(naphthalen-2-yloxy)acetamide]

- RFI (%) (relative fluorescence intensity), Table 4: 24 ± 2%
Compound: COc1ccc2ccc(OCC(=O)NS(=O)(=O)c3ccc([N+](=O)[O-])cc3OC)cc2c1 [Compound 25m, N-((2-Methoxy-4-nitrophenyl)sulfonyl)-2-((7-methoxynaphthalen-2-yl)oxy)acetamide]

- RFI (%) (relative fluorescence intensity), Table 4: 20 ± 3%
- fold binding potency increase versus compound 3 (from RFI at 10 µM): about 3 fold
Compound: Cc1cc(Nc2ccc(C(F)(F)F)cn2)cc(S(=O)(=O)NC(=O)COc2ccc3ccccc3c2)c1 [Compound 25v, N-((3-Methyl-5-((5-(trifluoromethyl)pyridin-2-yl)amino)phenyl)sulfonyl)-2-(naphthalen-2-yloxy)acetamide]

- EPAC1 binding potency / affinity in words: decreased the binding potency
- RFI (%) (relative fluorescence intensity), Table 4: 82 ± 4%
Compound: O=C(COc1ccc2ccccc2c1)NS(=O)(=O)c1cccc(F)c1 [Compound 25c, N-((3-Fluorophenyl)sulfonyl)-2-(naphthalen-2-yloxy)acetamide]

- RFI (%) (relative fluorescence intensity), Table 4: 67 ± 3%
Compound: O=C(COc1ccc2ccccc2c1)NS(=O)(=O)c1cccc([N+](=O)[O-])c1 [Compound 25x, 2-(Naphthalen-2-yloxy)-N-((3-nitrophenyl)sulfonyl)acetamide]

- RFI (%) (relative fluorescence intensity), Table 4: 49 ± 2%
Compound: O=C(COc1ccc2ccccc2c1)NS(=O)(=O)c1ccccc1 [Compound 25y, 2-(Naphthalen-2-yloxy)-N-(phenylsulfonyl)acetamide]

- RFI (%) (relative fluorescence intensity), Table 4: 71 ± 1%
Compound: COC(=O)c1cccc(S(=O)(=O)NC(=O)COc2ccc3ccccc3c2)c1 [Compound 25ad, Methyl 3-(N-(2-(naphthalene-2-yloxy)acetyl)sulfamoyl)benzoate]

- EPAC1 binding potency / affinity in words: decreased the binding potency
- RFI (%) (relative fluorescence intensity), Table 4: 81 ± 4%
Compound: O=C(COc1ccc2ccccc2c1)NS(=O)(=O)c1ccc(F)cc1 [Compound 25d, N-((4-Fluorophenyl)sulfonyl)-2-(naphthalen-2-yloxy)acetamide]

- RFI (%) (relative fluorescence intensity), Table 4: 36 ± 3%
Compound: Cc1cc(-c2cncc(F)c2)cc(S(=O)(=O)NC(=O)COc2ccc3ccccc3c2)c1 [Compound 25r, N-((3-(5-Fluoropyridin-3-yl)-5-methylphenyl)sulfonyl)-2-(naphthalen-2-yloxy)acetamide]

- RFI (%) (relative fluorescence intensity), Table 4: 44 ± 2%
Compound: Cc1ccc(S(=O)(=O)NC(=O)COc2ccc3ccccc3c2)cc1 [Compound 25w, 2-(Naphthalen-2-yloxy)-N-tosylacetamide]

- RFI (%) (relative fluorescence intensity), Table 4: 49 ± 4%
Compound: COc1ccc(OC)c(S(=O)(=O)NC(=O)COc2ccc3ccc(OC)cc3c2)c1 [Compound 25o, N-((2,5-Dimethoxyphenyl)sulfonyl)-2-((7-methoxynaphthalen-2-yl)oxy)acetamide]

- RFI (%) (relative fluorescence intensity), Table 4: 58 ± 2%
Compound: Cc1cc(Br)cc(S(=O)(=O)NC(=O)COc2ccc3ccccc3c2)c1 [Compound 25j, N-((3-Bromo-5-methylphenyl)sulfonyl)-2-(naphthalen-2-yloxy)acetamide]

- RFI (%) (relative fluorescence intensity), Table 4: 53 ± 2%
Compound: O=C(COc1ccc2ccccc2c1)NS(=O)(=O)c1cccc(-c2ccoc2)c1 [Compound 25ab, N-3-(Furan-3-yl)phenylsulfonyl-2-(naphthalene-2-yloxy)acetamide]

- RFI (%) (relative fluorescence intensity), Table 4: 23 ± 4%
Compound: COc1ccc2ccc(OCC(=O)NS(=O)(=O)c3ccc(OC)c(OC)c3)cc2c1 [Compound 25p, N-((3,4-Dimethoxyphenyl)sulfonyl)-2-((7-methoxynaphthalen-2-yl)oxy)acetamide]

- RFI (%) (relative fluorescence intensity), Table 4: 50 ± 3%
Compound: COc1ccc(S(=O)(=O)NC(=O)COc2ccc3ccccc3c2)cc1OC [Compound 25i, N-((3,4-Dimethoxyphenyl)sulfonyl)-2-(naphthalen-2-yloxy)acetamide]

- RFI (%) (relative fluorescence intensity), Table 4: 35± 1%
Compound: O=C(COc1ccc2ccccc2c1)NS(=O)(=O)c1cccc(-c2ccccc2)c1 [Compound 25ac, N-([1,1′-Biphenyl]-3-ylsulfonyl)-2-(naphthalene-2yloxy)acetamide]
